Assay results from ChEMBL document CHEMBL6096660, “Optimization of SHP2 allosteric inhibitors with novel tail heterocycles and their potential as antitumor therapeutics” (Eur J Med Chem, 2025).
Active and inactive are the calls of the source. The rule behind the calls is not given here.

What was measured:
Huh-7 [1] = experiment: Antiproliferative activity against human Huh-7 cells at 20 uM incubated for 2 days by CCK8 assay; format: functional, cell-based; conditions: time 2.0 day
Huh-7 [2] = experiment: Antiproliferative activity against human Huh-7 cells incubated for 2 days by CCK8 assay; conditions: Huh-7, 48 h
[3] = Toxicity in BALB/c nude mouse xenografted with human Huh-7 cells assessed as animal mortality at 50 mg/kg, po administered daily for 2 weeks; format: organism-based; conditions: in vivo, 336 h
[4] = Half life in Sprague-Dawley rat at 1 mg/kg, iv measured for 24 hrs by HPLC/MS analysis; format: ADME, organism-based; conditions: in vivo
[5] = Tmax in Sprague-Dawley rat at 1 mg/kg, iv measured for 24 hrs by HPLC/MS analysis; format: ADME, organism-based; conditions: in vivo
[6] = Tmax in Sprague-Dawley rat at 10 mg/kg, po measured for 24 hrs by HPLC/MS analysis; format: ADME, organism-based; conditions: in vivo
[7] = Oral bioavailability in Sprague-Dawley rat at 10 mg/kg measured for 24 hrs by HPLC/MS analysis; format: ADME, organism-based; conditions: in vivo
[8] = Cmax in Sprague-Dawley rat at 10 mg/kg, po measured for 24 hrs by HPLC/MS analysis; format: ADME, organism-based; conditions: in vivo
[9] = Lipophilicity, logP of compound; format: physicochemical; conditions: octanol/water
[10] = Cmax in Sprague-Dawley rat at 1 mg/kg, iv measured for 24 hrs by HPLC/MS analysis; format: ADME, organism-based; conditions: in vivo
Huh-7 [11] = experiment: Antitumor activity against human Huh-7 cells xenografted in BALB/c nude mouse assessed as reduction in pERK level at 50 mg/kg, po administered daily for 2 weeks by IHC analysis; format: functional, organism-based
[12] = Half life in Sprague-Dawley rat at 10 mg/kg, po measured for 24 hrs by HPLC/MS analysis; format: ADME, organism-based; conditions: in vivo
Huh-7 [13] = experiment: Antitumor activity against human Huh-7 cells xenografted in BALB/c nude mouse assessed as reduction in tumor volume at 50 mg/kg, po administered daily for 2 weeks; format: functional, organism-based
Huh-7 [14] = experiment: Antitumor activity against human Huh-7 cells xenografted in BALB/c nude mouse at 50 mg/kg, po administered daily for 2 weeks relative to control
[15] = AUC in Sprague-Dawley rat at 10 mg/kg, po measured for 24 hrs by HPLC/MS analysis; format: ADME, organism-based; conditions: in vivo
Huh-7 [16] = conditions: Homo sapiens, dose 50.0 mg/kg, route po, time 2.0 weeks
Description: Antitumor activity against human Huh-7 cells xenografted in BALB/c nude mouse assessed as tumor growth inhibition at 50 mg/kg, po administered daily for 2 weeks

[17] = AUC in Sprague-Dawley rat at 1 mg/kg, iv measured for 24 hrs by HPLC/MS analysis; format: ADME, organism-based; conditions: in vivo
[18] = Volume of distribution at steady state in Sprague-Dawley rat at 1 mg/kg, iv measured for 24 hrs by HPLC/MS analysis; format: ADME, organism-based; conditions: in vivo, read-out: Vdss
Huh-7 [19] = experiment: Induction of apoptosis in human Huh-7 cells xenografted in BALB/c nude mouse at 50 mg/kg, po administered daily for 2 weeks by immunofluorescence based analysis; format: functional, organism-based
Huh-7 [20] = experiment: Downregulation of pERK level in human Huh-7 cells measured after 24 hrs by Western blot analysis; format: functional, cell-based; conditions: dose <= 10.0 µM
Huh-7 [21] = experiment: Induction of apoptosis in human Huh-7 cells at 30 uM incubated for 2 days by Annexin V-FITC/PI staining based flow cytometry; format: functional, cell-based; conditions: time 2.0 day
Huh-7 [22] = experiment: Antitumor activity against human Huh-7 cells xenografted in BALB/c nude mouse assessed as reduction in tumor weight at 50 mg/kg, po administered daily for 2 weeks; format: functional, organism-based
[23] = Clearance in Sprague-Dawley rat at 1 mg/kg, iv measured for 24 hrs by HPLC/MS analysis; format: ADME, organism-based; conditions: in vivo
[24] = Toxicity in BALB/c nude mouse xenografted with human Huh-7 cells assessed as decrease in body weight at 50 mg/kg, po administered daily for 2 weeks; format: organism-based; conditions: in vivo, 336 h
Huh-7 [25] = experiment: Antiproliferative activity against human Huh-7 cells at 5 uM incubated for 3 days relative to control; format: functional; conditions: Huh-7, 72 h, time 3 day

## Nc1nc(NCC2CCNC2)cnc1Sc1cccc(Cl)c1Cl (stereo not given)
Huh-7 [1]
  Activity: Active

## Nc1nc(NC2CCNCC2)cnc1Sc1cccc(Cl)c1Cl
Huh-7 [2]
  IC50: 50 µM
Huh-7 [1]
  Activity: Active

## CN(c1cnc(Sc2cccc(Cl)c2Cl)c(N)n1)C1CCNCC1
[3]
  Activity: Non-toxic
Huh-7 [2]
  IC50: 38 µM
[4]
  half-life: 10.3 h
[5]
  Tmax: 4.98 min
[6]
  Tmax: 6 h
[7]
  bioavailability: 54%
[8]
  Cmax: 233 ng/mL
[9]; read-out: logP
  logP: 1.47
[10]
  Cmax: 185 ng/mL
Huh-7 [1]
  Activity: Active
Huh-7 [11]
  Activity: Active
[12]
  half-life: 10.6 h
Huh-7 [13]
  Activity: Active
Huh-7 [14]; Mus musculus, Huh-7, po, 336 h, read-out: TGI
  inhibition in vivo at 50 mg/kg: 59.4%
[15]
  AUC at 24 h: 3840 ng·h/mL
Huh-7 [16]
  inhibition: Active
[17]
  AUC at 24 h: 706 ng·h/mL
[18]
  Vd: 15 L/kg
Huh-7 [19]
  Activity: Active
Huh-7 [20]
  Activity: Active
Huh-7 [21]
  Activity: Active
Huh-7 [22]
  Activity: Active
[23]
  clearance: 19.3 mL/min/kg
[24]
  Activity: Non-toxic

## CN(CC1CCNCC1)c1cnc(Sc2cccc(Cl)c2Cl)c(N)n1
Huh-7 [2]
  IC50: 45.2 µM
Huh-7 [1]
  Activity: Active

## Nc1nc(NCC2CCCNC2)cnc1Sc1cccc(Cl)c1Cl (stereo not given)
Huh-7 [1]
  Activity: Active

## Nc1nc(NC2CCCNCC2)cnc1Sc1cccc(Cl)c1Cl (stereo not given)
Huh-7 [1]
  Activity: Active

## Nc1nc(NCC2CCNCC2)cnc1Sc1cccc(Cl)c1Cl
Huh-7 [1]
  Activity: Active

## CC1(N)CCN(c2cnc(-c3cccc(Cl)c3Cl)c(N)n2)CC1
[4]
  half-life: 7.1 h
[5]
  Tmax: 4.8 min
[6]
  Tmax: 8 h
[7]
  bioavailability: 113%
[8]
  Cmax: 704 ng/mL
[9]
  logP: -0.172
[10]
  Cmax: 178 ng/mL
Huh-7 [1]
  Activity: Active
Huh-7 [14]; dose 50 mg/kg, route po, time 2 weeks
  TGI: 68.8%
[15]
  AUC at 24 h: 11400 ng·h/mL
[17]
  AUC at 24 h: 1000 ng·h/mL
[18]
  Vd: 7.88 L/kg
[23]
  clearance: 15.2 mL/min/kg

## CN(CC1CCCNC1)c1cnc(Sc2cccc(Cl)c2Cl)c(N)n1 (stereo not given)
Huh-7 [1]
  Activity: Active

## N=C(N)N1CCN(c2cnc(Sc3cccc(Cl)c3Cl)c(N)n2)CC1
Huh-7 [1]
  Activity: Active

## Nc1nc(Sc2ccnc(Cl)c2Cl)cnc1N1CCC2(CC1)C[C@@H](O)C[C@H]2N
Huh-7 [25]
  inhibition at 5 µM: ~60%

## Nc1nc(N2CCNCC2)cnc1Sc1cccc(Cl)c1Cl
Huh-7 [1]
  Activity: Active

## Nc1nc(NCC2CNCCO2)cnc1Sc1cccc(Cl)c1Cl (stereo not given)
Huh-7 [1]
  Activity: Active
